Measurements taken from patent US20210330599A1, “Nanoparticles for Controlled Release of Anti-Biofilm Agents and Methods of Use” (University of Rochester, priority 2016, published 2021).
Several values for one entry are separate records, joined by “and”; a condition that tells them apart may be missing. Equal entries are not always repeated.

Tests used:
[1] = monomer / monomer residue; cited from earlier work
[2] = test system: S. mutans UA159 biofilms; experiment: S. mutans biofilm on sHA discs, topical treatment regimen (Example 2); type: cell-based, Streptococcus mutans; conditions: equivalent farnesol dose / controls
Experimental: Biofilms of S. mutans UA159 were formed on saliva coated hydroxyapatite (sHA) surfaces (12.7 mm in diameter, 1 mm in thickness, Clarkson Chromatography Products Inc., South Williamsport, Pa.) as detailed elsewhere (Koo et al., 2010, J Bacteriol, 192(12):3024-32). […] Disks were pretreated with the above-described solutions for 10 min, washed twice with sterile saline, and transferred back to culture media. […] Biofilms were allowed to form on the discs without interruption for 6 hours at which point a second treatment was applied. The next day, biofilms were treated every 6 hours for a total of 3 treatments and the culture media was changed twice. After 48 hours, the amount of colony forming units (CFU) per dry-weight of biofilms was assessed. Briefly, the biofilms were removed and homogenized, then plated onto blood agar plates, and after incubation at 37° C., 5% CO2, the CFUs were counted as described previously (Koo et al., 2003, J Antimicrob Chemother, 52(5):782-9).

[3] = test system: Streptococcus mutans UA159 biofilms; experiment: S. mutans biofilm on sHA discs, topical treatment regimen (Example 3); type: cell-based; conditions: 7 topical applications over 54 h
Experimental: Streptococcus mutans UA159, a well-characterized EPS matrix producing and cariogenic pathogen (W. H. Bowen and H. Koo, Caries Res., 2011, 45, 69-86), was used to assess the effect of nanoparticle-mediated delivery of farnesol on biofilm formation using a topical treatment regimen (Horev et al., ACS Nano, 2015, 9, 2390-2404; Koo et al., J. Antimicrob. Chemother., 2003, 52, 782-789). The treatment solutions were: free nanoparticles (1.9 mg ml^−1 in PBS, pH 7.0), farnesol-loaded nanoparticles (1.9 mg ml^−1 loaded with 0.5 mg ml^−1 farnesol, in PBS, pH 7.0), free farnesol (0.5 mg ml^−1 farnesol, in PBS, pH 7.0, 20% ethanol (EtOH)), vehicle control for free farnesol (PBS, pH 7.0, 20% EtOH), and PBS (pH 7.0). A 20% v/v ethanol solution was used as a vehicle to solubilize free farnesol, which is otherwise insoluble in aqueous media (Koo et al., J. Antimicrob. Chemother., 2003, 52, 782-789). […]
The sHA discs and biofilms were treated for 10 min, washed twice with sterile saline (0.89% NaCl), and transferred to culture media. […] Aliquots of biofilm suspension were serially diluted and plated onto blood agar plates, and after 48 h incubation (37° C. and 5% CO2), the colonies were visually counted. […]

[4] = test system: Streptococcus mutans; conditions: cited from earlier work
[5] = Encapsulation of fluoride using NPC; type: physicochemical; conditions: preliminary studies
From the text: (§1) In addition, amine fluoride is known to have antibacterial properties.

[6] = test system: S. mutans cells
From the text: as §1

[7] = pKa and protonation values of monomers and polymers; type: physicochemical; conditions: FIG. 22
[8] = farnesol on one degradable tether length (6 degradable bonds)

C=C(C)C(=O)OCCN(CC)CC [DEAEMA, diethylaminoethyl methacrylate]
pKa of monomer [1]: ~7

C=C(C)C(=O)OCCN(C)C [DMAEMA, dimethylaminoethyl methacrylate]
pKa of monomer [1]: ~7.2 and 7.2-7.4

C=C(C)C(=O)O [MAA, methacrylic acid]
pKa of monomer [1]: ~4.6

CC(C)=CCCC(C)=CCCC(C)=CCO [farnesol]
effect on biofilm CFU relative to PBS [2]: no effect on CFU relative to PBS | CFUs per biofilm dry weight / antibiofilm efficacy [3]: only a modest reduction | MIC of farnesol [4]: < 28 µg/mL

[F-].[Na+] [sodium fluoride]
compatibility with loading into NPC [5]: not compatible with loading into or onto the NPC

Amine fluoride
biofilm formation [6]: inhibit biofilm formation | killing of S. mutans cells [6]: able to kill S. mutans cells at the μM level

Imidazole methacrylate [IMA]
pKa of monomer [1]: 6.9-7.0

ethylacrylic acid [EAA]
pKa of synthesized imidazole and ethylacrylic acid functionalities [7]: 6.3 | pKa of monomer [1]: ~6.3 and 6.3-6.5

poly(dimethylaminoethyl methacrylate)-b-poly(dimethylaminoethyl methacrylate-co-propylacrylic acid-co-butyl methacrylate) [NPC]
duration of sustained delivery of farnesol [8]: up to 6 days

propylacrylic acid [PAA]
pKa of monomer [1]: ~7 and 6.8-7.0
